Measurements as given in US12275729B2 (Merck Sharp & Dohme LLC, priority 2017, dated 2025).

Target: IDO1 (Homo sapiens, UniProt P14902)
Assay: IDO1 Cellular Assay in HeLa Cells Stimulated with IFNγ
Format: cell-based
Conditions: about 48 hours, read-out: Hela IC50

Sequence of IDO1 (P14902 whole entry): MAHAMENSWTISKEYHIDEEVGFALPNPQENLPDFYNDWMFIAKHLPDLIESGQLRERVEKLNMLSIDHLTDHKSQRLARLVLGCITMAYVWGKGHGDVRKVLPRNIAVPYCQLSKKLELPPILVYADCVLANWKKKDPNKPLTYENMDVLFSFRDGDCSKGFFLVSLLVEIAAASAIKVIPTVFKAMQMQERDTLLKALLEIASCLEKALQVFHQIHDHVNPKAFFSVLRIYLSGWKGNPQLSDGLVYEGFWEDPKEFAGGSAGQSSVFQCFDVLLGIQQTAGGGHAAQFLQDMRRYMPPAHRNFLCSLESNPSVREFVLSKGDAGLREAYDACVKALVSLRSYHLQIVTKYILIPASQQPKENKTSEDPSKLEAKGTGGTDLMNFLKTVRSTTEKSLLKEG

Row | Structure (SMILES) | IC50 [nM]
1 | CS(=O)(=O)N1CCCc2cc(C3(C(=O)Nc4ccc(F)cn4)CCC3)ccc21 [Example 123, N-(5-fluoropyridin-2-yl)-1-[1-(methylsulfonyl)-1,2,3,4-tetrahydroquinolin-6-yl]cyclobutane-1-carboxamide] | 34.1
2 | COC(=O)N1CCCc2nc(C3(NC(=O)c4ccc(Cl)cc4)CCC3)ccc21 [Example 219, methyl 6-{1-[(4-chlorobenzene-1-carbonyl)amino]cyclobutyl}-3,4-dihydro-1,5-naphthyridine-1(2H)-carboxylate] | 9.9
3 | Cc1nccc(N2CCCc3nc(C4(NC(=O)c5ccc(F)c(F)c5)CC4)ccc32)n1 [Example 302, 3,4-difluoro-N-(1-(5-(2-methylpyrimidin-4-yl)-5,6,7,8-tetrahydro-1,5-naphthyridin-2-yl)cyclopropyl)benzamide] | 2.92
4 | O=C(NCc1ccc2c(c1)CCCN2C(=O)OCc1ccccc1)c1ccc(Cl)cc1 [Example 15, benzyl 6-((4-chlorobenzamido)methyl)-3,4-dihydroquinoline-1(2H)-carboxylate] | 36.9
5 | COCCOCC(=O)N1CCCc2cc([C@H](C)C(=O)Nc3ccc(F)cc3)ccc21 [Example 77, (2S)-N-(4-fluorophenyl)-2-{1-[(2-methoxyethoxy)acetyl]-1,2,3,4-tetrahydroquinolin-6-yl}propanamide] | 1240
6 | COC(C(=O)Nc1ccc(F)cn1)c1ccc2c(c1)CCCN2C(=O)C1CC1 (single isomer, unassigned) [Example 156, 2-(1-(cyclopropanecarbonyl)-1,2,3,4-tetrahydroquinolin-6-yl)-N-(5-fluoropyridin-2-yl)-2-methoxyacetamide] | 794
7 | CC(C)C(=O)N1CCCc2cc(C(C)C(=O)Nc3ccc(F)cc3)ccc21 (stereo not drawn) [Example 40, N-(4-fluorophenyl)-2-[1-(2-methylpropanoyl)-1,2,3,4-tetrahydroquinolin-6-yl]propanamide] | 5
8 | Cc1cc(C(=O)NCc2ccc3c(c2)CCCN3C(=O)CC(C)C)ccc1Cl [Example 4, 4-chloro-3-methyl-N-{[1-(3-methylbutanoyl)-1,2,3,4-tetrahydroquinolin-6-yl]methyl}benzamide] | 298
9 | CC(C)CC(=O)N1CCCc2cc(CNC(=O)c3ccc(Cl)c(F)c3)ccc21 [Example 9, 4-chloro-3-fluoro-N-{[1-(3-methylbutanoyl)-1,2,3,4-tetrahydroquinolin-6-yl]methyl}benzamide] | 49.3
10 | C[C@@H](C(=O)Nc1ccc(F)cn1)c1ccc2c(c1)CCCN2C(=O)C1(F)CC1 (single isomer, unassigned) [Example 62] | 524
11 | O=C(c1cnn(CC(F)F)c1)N1CCCc2cc(C3(C(=O)Nc4ccc(F)cc4)CCC3)ccc21 [Example 114, 1-{1-[1-(2,2-difluoroethyl)-1H-pyrazole-4-carbonyl]-1,2,3,4-tetrahydroquinolin-6-yl}-N-(4-fluorophenyl)cyclobutane-1-carboxamide] | 86.1
12 | C[C@H](C(=O)Nc1ccc(F)cc1)c1ccc2c(c1)CCCN2C(=O)C1CCC1 [Example 80, (2S)-2-[1-(cyclobutanecarbonyl)-1,2,3,4-tetrahydroquinolin-6-yl]-N-(4-fluorophenyl)propanamide] | 4.5
13 | CC(C(=O)Nc1ccc(F)cc1)c1ccc2c(c1)CCCN2C(=O)C1CCCO1 (stereo not drawn) [Example 39, N-(4-fluorophenyl)-2-[1-(oxolane-2-carbonyl)-1,2,3,4-tetrahydroquinolin-6-yl]propanamide] | 5.4

Continued, values first:

Row | IC50 [nM] | Structure (SMILES)
14 | 5290 | CC(NC(=O)c1ccc(F)cc1)c1ccc2c(n1)C(F)(F)CCN2C(=O)C1CC1 (stereo not drawn) [Example 193, N-(1-(5-(cyclopropanecarbonyl)-8,8-difluoro-5,6,7,8-tetrahydro-1,5-naphthyridin-2-yl)ethyl)-4-fluorobenzamide]
15 | 7 | CC(NC(=O)c1ccc(F)cc1)c1ccc2c(n1)CCCN2C(=O)c1ccccn1 (stereo not drawn) [Example 280, 2-(1-(4-fluorobenzamido)ethyl)-5-picolinoyl-5,6,7,8-tetrahydro-1,5-naphthyridin-1-ium 2,2,2-trifluoroacetate]
16 | 24 | C[C@@H](NC(=O)c1ccc(F)cc1)c1ccc2c(n1)CCCN2C(=O)[C@H]1CC1(F)F (single isomer, unassigned) [Example 134]
17 | 5.5 | CC(NC(=O)c1ccc(F)cc1)c1ccc2c(n1)CCCN2C(=O)OCCF (stereo not drawn) [Example 210, 2-fluoroethyl 6-{1-[(4-fluorobenzene-1-carbonyl)amino]ethyl}-3,4-dihydro-1,5-naphthyridine-1(2H)-carboxylate]
18 | 3 | Cc1cccc(C(=O)N2CCCc3nc(C(C)NC(=O)c4ccc(F)cc4)ccc32)n1 (stereo not drawn) [Example 281, 2-(1-(4-fluorobenzamido)ethyl)-5-(6-methylpicolinoyl)-5,6,7,8-tetrahydro-1,5-naphthyridin-1-ium 2,2,2-trifluoroacetate]
19 | 10.8 | COC(=O)N1CCCc2nc(C(C)C(=O)Nc3ccc(Cl)cc3)ccc21 (stereo not drawn) [Example 223, methyl 6-{1-[(4-chlorophenyl)amino]-1-oxopropan-2-yl}-3,4-dihydro-1,5-naphthyridine-1(2H)-carboxylate]
20 | 2.2 | O=C(c1cccc(Cl)c1)N1CCCc2nc(C3(C(=O)Nc4ccc(F)cc4)COC3)ccc21 [Example 267, 3-(5-(3-chlorobenzoyl)-5,6,7,8-tetrahydro-1,5-naphthyridin-2-yl)-N-(4-fluorophenyl)oxetane-3-carboxamide]
21 | 2.15 | Cc1nccc(N2CCCc3nc(C4(C(=O)Nc5ccc(F)cc5)CCC4)ccc32)n1 [Example 403, N-(4-fluorophenyl)-1-(5-(2-methylpyrimidin-4-yl)-5,6,7,8-tetrahydro-1,5-naphhyridin-2-yl)cyclobutane-1-carboxamide]
22 | 1.1 | CC(C(=O)Nc1ccc(F)cc1)c1ccc2c(n1)CCCN2C(=O)[C@@H]1CCCO1 (single isomer, unassigned) [Example 164]

Same assay, conditions: read-out: Hela IC50

Row | Structure (SMILES) | IC50 [nM]
23 | CC(NC(=O)c1ccc(F)cc1)c1ccc2c(n1)CCCN2c1cc(C#N)ccn1 (stereo not drawn) [Example 378, N-(1-(5-(4-cyanopyridin-2-yl)-5,6,7,8-tetrahydro-1,5-naphthyridin-2-yl)ethyl)-4-fluorobenzamide] | 352
24 | COc1cc(N2CCCc3nc(C(C)NC(=O)c4ccc(F)cc4)ccc32)ncn1 (stereo not drawn) [Example 379, 4-fluoro-N-(1-(5-(6-methoxypyrimidin-4-yl)-5,6,7,8-tetrahydro-1,5-naphthyridin-2-yl)ethyl)benzamide] | 13
25 | CC(NC(=O)c1ccc(F)cc1)c1ccc2c(n1)CCCN2C(=O)OC(C)c1cccnc1 (stereo not drawn) [Example 318, 1-(pyridin-3-yl)ethyl 6-(1-(4-fluorobenzamido)ethyl)-3,4-dihydro-1,5-naphthyridine-1(2H)-carboxylate] | 19.8
26 | COc1ccnc(N2CCCc3nc(C(C)NC(=O)c4ccc(F)cc4)ccc32)c1 (stereo not drawn) [Example 377, 4-fluoro-N-(1-(5-(4-methoxypyridin-2-yl)-5,6,7,8-tetrahydro-1,5-naphthyridin-2-yl)ethyl)benzamide] | 315
27 | C[C@H](NC(=O)c1ccc(F)cc1)c1ccc2c(n1)CCCN2c1cccc(=O)[nH]1 [Example 386, (S)-2-(1-(4-fluorobenzamido)ethyl)-5-(6-oxo-1,6-dihydropyridin-2-yl)-5,6,7,8-tetrahydro-1,5-naphthyridin-1-ium 2,2,2-trifluoroacetate] | 41.4
